Legend:
[1] = tested on: animal models of arthritis and lupus; settings: mice; cited from earlier work
lymphocyte proliferation = settings: in vitro; cited from earlier work
allogeneic T-cell = settings: in vitro; cited from earlier work
[2] = tested on: T-ALL patient derived xenograft models; settings: cited from earlier work
lymphoid malignancies = settings: clinical studies; cited from earlier work
[3] = target: His-His-(EK)-hsBCLXL(2-197)[N197C] (Homo sapiens (Human), UniProt Q07817, N197C); experiment: Fluorescence quenching assay; assay type: binding; settings: 1 nM Cy5-labelled protein, 400 nM PUMA peptide, 2 hours at 23° C.; KI determined from IC50
Procedure, shortened: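 Cy5-labelled BCL-xL (1 nM) with TQ5WS quencher-labelled PUMA peptide (400 nM); displacement by compound (11-point dilution) raises fluorescence. Buffer 10 mM HEPES, 150 mM NaCl, 0.05% Tween 20, pH 7.4, 5% DMSO; 2 h at 23° C, Ex 620/Em 680 nm. Ki derived from IC50.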

[4] = target: GST(1-218)-(FACTOR_XA)-hsBCLXL(2-209) (Homo sapiens (Human), UniProt Q07817); experiment: Fluorescence polarisation assay; assay type: binding
Description: Fluorescence polarization measures the rotation of a fluorescing species in solution, the larger the molecule the more polarized the fluorescence emission.
(GST UniProtKB® primary accession number P08515 and BCLXL UniProtKB® primary accession number Q07817-1), • resulting in an increase in anisotropy. If a compound is added which competitively binds to the same site as the probe, thereby releasing it, anisotropy decreases due to the increased amount of free probe.
An 11-point serial dilution of each compound was prepared in DMSO, the final buffer conditions were 10 mM 4-(2-hydroxyethyl)-1-piperazineethanesulfonic acid [HEPES], 150 mM NaCl, 0.05% Tween 20, pH 7.4 and 5% DMSO. The final protein concentration in the assay was 20 nM with the fluorescent probe present at 10 nM. […] 1; 37 (WebServer issue): W441-W445.

circulating platelets = experiment: Pharmacodynamics: circulating platelets in MOLT-4-grafted mice; assay type: in vivo, female NOD SCID mice; settings: after treatment discontinuation (data not shown)
Description: For pharmacodynamics studies, when tumors reached the appropriate volume, mice were randomized (3 animals per group) using Easy stat software. […] Tumor samples were collected 6 h after dosing and lysed (10 mM HEPES pH 7.4, 142.5 mM KCl, 5 mM MgCl2, 1 mM EDTA, 1% NP40, protease and phosphatase inhibitors cocktails—Calbiochem). Cleared lysates were prepared for immunodetection of cleaved PARP and Caspase 3 by using the MSD apoptosis panel whole cell lysate kit (MSD) in 96-well plates according to manufacturer's instructions, and were analyzed on the QuickPlex SQ 120. Whole blood samples were analyzed on the Hematology Analyzer Coulter Ac⋅T diff (Beckman Coulter).

H146 cells = experiment: H146 cell viability using MTT assay; assay type: cell-based; settings: Homo sapiens, NCI-H146, 48 h exposure
Procedure, shortened: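 Cells were cultured in RPMI 1640 with 10% heat-inactivated FBS, penicillin/streptomycin and 2 mM L-glutamine, then exposed 48 h to 9 concentrations (3.16-fold series, triplicates). MTT was added for 4 h and formazan solubilised overnight in SDS/HCl. OD was read at 540 nm and IC50 fitted with four-parameter curves.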

MOLT-4 xenografts = experiment: Tumor regression study in MOLT-4 xenografts; assay type: in vivo, female NOD SCID mice; settings: 5 mg/kg IV
Description: The in vivo therapeutic and pharmacodynamic effects of Bcl-xL-targeting small molecules were determined in MOLT-4 T-cell Acute Lymphoblastic Leukemia (T-ALL) model upon intravenous (IV) or oral (PO) administration.
MOLT-4 cells (ATCC No. CRL-1582) were cultured in RPMI supplemented with 10% FBS. Cells were re-suspended in 50% matrigel (BD Biosciences) and 0.1 mL containing 5×10^6 cells was subcutaneously inoculated into the right flank of female NOD SCID mice (Charles River). For efficacy studies, when tumors reached the appropriate volume, mice were randomized (7 animals per group) using Easy stat software. […] Mice body weight was monitored three times a week and tumor size was measured using electronic calipers. Tumor volume was estimated by measuring the minimum and maximum tumor diameters using the formula: (minimum diameter)^2(maximum diameter)/2. The last day with at least half of control animals still present in the study (day 31), tumor growth inhibition was calculated using the formula: […]
Response was evaluated as follows: CR (Complete Response) if tumor size was <25 mm^3 for at least three consecutive measurements, PR (Partial Response) if tumor size was comprised between 25 mm^3 and half of the starting size for at least three consecutive measurements. Mice were sacrificed at the first measurement for which tumor volume exceeded 2000 mm^3 or at the first signs of animal health deterioration.

GST(1-218)-(FACTOR_XA)-hsBCLXL(2-209), sequence (Q07817 other isoform, or with tags, fused parts or gaps): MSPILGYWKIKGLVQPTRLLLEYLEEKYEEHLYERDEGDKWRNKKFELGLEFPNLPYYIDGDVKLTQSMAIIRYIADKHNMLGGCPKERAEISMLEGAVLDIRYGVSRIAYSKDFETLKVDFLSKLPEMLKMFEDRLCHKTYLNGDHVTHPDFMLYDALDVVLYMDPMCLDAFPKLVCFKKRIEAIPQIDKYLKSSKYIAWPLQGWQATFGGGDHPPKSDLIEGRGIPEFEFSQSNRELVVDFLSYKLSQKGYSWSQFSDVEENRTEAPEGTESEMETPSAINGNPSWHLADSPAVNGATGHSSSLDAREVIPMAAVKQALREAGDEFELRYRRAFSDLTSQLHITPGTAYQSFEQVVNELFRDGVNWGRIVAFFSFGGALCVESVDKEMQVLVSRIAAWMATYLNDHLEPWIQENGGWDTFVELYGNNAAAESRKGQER
His-His-(EK)-hsBCLXL(2-197)[N197C], sequence (Q07817 2-197 N197C): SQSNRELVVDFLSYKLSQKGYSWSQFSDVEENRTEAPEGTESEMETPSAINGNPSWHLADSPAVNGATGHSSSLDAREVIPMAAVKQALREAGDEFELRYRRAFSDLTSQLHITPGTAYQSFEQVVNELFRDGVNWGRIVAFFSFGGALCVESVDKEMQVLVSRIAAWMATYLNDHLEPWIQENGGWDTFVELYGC

Ki [3]	Ki [4]	IC50 (H146 cells)	SMILES	disease severity [1]	lymphocyte proliferation (lymphocyte proliferation)	allogeneic T-cell activation, proliferation, and cytotoxicity (allogeneic T-cell)	activity [2]	antitumor activity (lymphoid malignancies)	platelets loss recovery (circulating platelets)	% CR (MOLT-4 xenografts; Q3D6)	% PR (MOLT-4 xenografts; Q3D6)	% TGI (d31) (MOLT-4 xenografts; Q3D6, day 31)
			CN(C)CC[C@H](CSc1ccccc1)Nc1ccc(S(=O)(=O)NC(=O)c2ccc(N3CCN(Cc4ccccc4-c4ccc(Cl)cc4)CC3)cc2)cc1[N+](=O)[O-] [ABT-737]	significant decrease in disease severity	potent inhibition of lymphocyte proliferation	prevented allogeneic T-cell activation, proliferation, and cytotoxicity	promising activity					
			CC1(C)CCC(c2ccc(Cl)cc2)=C(CN2CCN(c3ccc(C(=O)NS(=O)(=O)c4ccc(N[C@H](CCN5CCOCC5)CSc5ccccc5)c(S(=O)(=O)C(F)(F)F)c4)cc3)CC2)C1 [ABT-263]				promising activity	objective antitumor activity				
0.008 nM	< 1 nM	32.7 nM	Cc1c(Nc2nc3ccccc3s2)nnc2c1CCCN2c1ccc(-c2cnn(CC34CC5CC(CC(C5)C3)C4)c2C)c(C(=O)O)n1 [Example 24]						platelets loss was recovered after treatment discontinuation	0%	71.4%	78.7%

Reference: patent US12570648B2, “6,7-dihydro-5H-pyrido[2,3-c]pyridazine derivatives and related compounds as Bcl-xL protein inhibitors and pro-apoptotic agents for treating cancer” (LES LABORATOIRES SERVIER, priority 2019, dated 2026)
